Test results taken from the NIST ThermoML archive (doi:10.1016/j.jct.2013.12.012).
Values joined by “and” are separate entries in the source; they are usually repeats but may differ in a detail not shown here. Equal values may be shown once.

Tests used:
[1] = for vapor or sublimation pressure: Closed cell (Static) method; for Normal melting temperature / Triple point temperature: DTA
[2] = Molar enthalpy of transition or fusion; settings: DSC
[3] = molar heat capacity at constant pressure

C=C1C2CCC(C2)C1(C)C (stereo not drawn) [2,2-dimethyl-3-methylenebicyclo[2.2.1]heptane]
[1], Crystal
Settings	vapor or sublimation pressure
238.15 K	0.003435 kPa and 0.003436 kPa
243.15 K	0.005761 kPa and 0.005765 kPa and 0.005768 kPa
248.15 K	0.00946 kPa and 0.009464 kPa and 0.009473 kPa
253.15 K	0.01527 kPa
258.15 K	0.0241 kPa and 0.02413 kPa
263.15 K	0.03746 kPa and 0.03747 kPa
268.15 K	0.05698 kPa and 0.05699 kPa
273.15 K	0.08514 kPa and 0.08515 kPa and 0.08516 kPa
273.65 K	0.0885 kPa and 0.08853 kPa and 0.08854 kPa
278.15 K	0.1252 kPa
283.15 K	0.1811 kPa
288.15 K	0.2585 kPa and 0.2586 kPa and 0.2587 kPa
293.15 K	0.3628 kPa and 0.363 kPa and 0.3631 kPa
298.15 K	0.5037 kPa and 0.5038 kPa and 0.5039 kPa
303.15 K	0.6891 kPa and 0.6896 kPa and 0.69 kPa
308.15 K	0.934 kPa and 0.9343 kPa and 0.9345 kPa

Crystal
Settings	Molar enthalpy of transition or fusion [kcal/mol]	Normal melting temperature [°C]
[1]	–	44.5
[2]	0.645	–

[3], 101.33 kPa, Large sample (1 g) DSC
Settings	molar heat capacity at constant pressure [J/K/mol]
258.1 K, Crystal	211.1
263.2 K, Crystal	213.9
268.3 K, Crystal	216.8
273.4 K, Crystal	219.8
278.5 K, Crystal	222.7
283.6 K, Crystal	225.7
288.7 K, Crystal	228.8
293.8 K, Crystal	231.9
298.9 K, Crystal	235.1
324.5 K, Liquid	251.5
329.6 K, Liquid	254.5
334.7 K, Liquid	257.4
339.8 K, Liquid	259.8
344.9 K, Liquid	262.3
350 K, Liquid	265.6
355.1 K, Liquid	269.3

CC1(C)[C@H]2CC[C@]1(C)C(=O)C2 [(1S)-1,7,7-trimethylbicyclo[2.2.1]heptan-2-one]
[1], Crystal 2
Settings	vapor or sublimation pressure
273.65 K	0.00359 kPa and 0.003604 kPa and 0.003606 kPa
278.15 K	0.005406 kPa and 0.005414 kPa and 0.00542 kPa
283.15 K	0.008302 kPa and 0.008322 kPa and 0.008324 kPa
288.15 K	0.01261 kPa and 0.01262 kPa and 0.0126 kPa
293.15 K	0.01883 kPa and 0.01885 kPa and 0.01888 kPa
298.15 K	0.02802 kPa and 0.02806 kPa and 0.02812 kPa
303.15 K	0.04122 kPa and 0.04127 kPa
308.15 K	0.05983 kPa and 0.05985 kPa and 0.05989 kPa

Settings	Molar enthalpy of transition or fusion, Crystal 1 [kcal/mol]	Molar enthalpy of transition or fusion, Crystal 2 [kcal/mol]	Molar enthalpy of transition or fusion, Crystal 3 [kcal/mol]	Normal melting temperature, Crystal 1 [°C]	Triple point temperature, Crystal 2 [K]	Triple point temperature, Crystal 3 [K]
[1]	–	–	–	175.4	373.4	243.9
[2]	1.17	0.0478	2.63	–	–	–

[3], 101.33 kPa, Crystal 2, Large sample (1 g) DSC
Settings	molar heat capacity at constant pressure [J/K/mol]
273.4 K	241
278.5 K	242
283.6 K	243
288.7 K	244.9
293.8 K	246.6
298.9 K	248.9
304 K	251
309.1 K	253.2
314.2 K	255.5
319.4 K	256.9
324.5 K	259.7
329.6 K	262.5
334.7 K	264.8
339.8 K	267.2
344.9 K	270.5
350 K	273.6
355.1 K	276.7

CC1(C)[C@H]2CC[C@]1(C)[C@H](O)C2 [(1S-endo)-1,7,7-trimethylbicyclo[2.2.1]heptan-2-ol]
[1], Crystal 2
Settings	vapor or sublimation pressure
273.65 K	0.000211 kPa and 0.000212 kPa
278.15 K	0.00036 kPa and 0.000361 kPa
283.15 K	0.000638 kPa and 0.000639 kPa
288.15 K	0.001105 kPa and 0.001106 kPa and 0.001104 kPa
293.15 K	0.001882 kPa and 0.001883 kPa
298.15 K	0.003159 kPa and 0.003161 kPa and 0.003162 kPa
303.15 K	0.005213 kPa and 0.005214 kPa and 0.005215 kPa
308.15 K	0.008461 kPa and 0.008464 kPa and 0.008465 kPa

Settings	Molar enthalpy of transition or fusion, [2] [kcal/mol]	Normal melting temperature, [1] [°C]	Triple point temperature, [1] [K]
Crystal 1	1.74	207.2	–
Crystal 2	0.765	–	347.9

[3], 101.33 kPa, Crystal 2, Large sample (1 g) DSC
Settings	molar heat capacity at constant pressure [J/K/mol]
273.4 K	237.9
278.5 K	241.9
283.6 K	246.4
288.7 K	250.5
293.8 K	255.4
298.9 K	261.2
304 K	266.7
309.1 K	272.5
314.2 K	279
319.4 K	286.1
324.5 K	293.6
329.6 K	302
334.7 K	311

CC1(C)C(=O)[C@@]2(C)CC[C@@H]1C2 [(+)-fenchone]
[1]
Settings	vapor or sublimation pressure
238.15 K, Crystal 2	0.00014 kPa and 0.000141 kPa and 0.000142 kPa
243.15 K, Crystal 2	0.000277 kPa and 0.000278 kPa
243.15 K, Metastable liquid	0.000763 kPa and 0.000764 kPa
248.15 K, Crystal 2	0.000547 kPa and 0.000548 kPa
248.15 K, Metastable liquid	0.001307 kPa and 0.001308 kPa
253.15 K, Crystal 2	0.001053 kPa and 0.001054 kPa
253.15 K, Metastable liquid	0.002188 kPa and 0.002189 kPa
258.15 K, Crystal 2	0.001988 kPa and 0.001991 kPa and 0.001993 kPa
258.15 K, Metastable liquid	0.003604 kPa and 0.003605 kPa
263.15 K, Crystal 2	0.0037 kPa and 0.003705 kPa
263.15 K, Metastable liquid	0.005827 kPa and 0.005828 kPa and 0.005829 kPa
268.15 K, Crystal 2	0.006751 kPa and 0.006753 kPa
268.15 K, Metastable liquid	0.009242 kPa and 0.009244 kPa and 0.009246 kPa
273.15 K, Crystal 2	0.01206 kPa
273.15 K, Metastable liquid	0.01436 kPa
278.15 K, Crystal 1	0.02111 kPa and 0.02112 kPa
278.15 K, Metastable liquid	0.02193 kPa and 0.02194 kPa
283.15 K, Liquid	0.03289 kPa and 0.0329 kPa and 0.03291 kPa
288.15 K, Liquid	0.04842 kPa and 0.04845 kPa
293.15 K, Liquid	0.07036 kPa and 0.07037 kPa
298.15 K, Liquid	0.1007 kPa and 0.1008 kPa
303.15 K, Liquid	0.1421 kPa
308.15 K, Liquid	0.1977 kPa and 0.1978 kPa

Settings	Molar enthalpy of transition or fusion, [2] [kcal/mol]	Normal melting temperature, [1] [°C]	Triple point temperature, [1] [K]
Crystal 1	–	5.5	–
Crystal 2	4.16	–	278

[3], 101.33 kPa
Settings	molar heat capacity at constant pressure [J/K/mol]
273.4 K, Metastable liquid, Large sample (1 g) DSC	259.6
278.5 K, Metastable liquid, Large sample (1 g) DSC	260.7
283.6 K, Large sample (1 g) DSC, Liquid	263.6
288.7 K, Large sample (1 g) DSC, Liquid	264.6
293.8 K, Large sample (1 g) DSC, Liquid	266.6
298.9 K, Large sample (1 g) DSC, Liquid	269.8
304 K, Large sample (1 g) DSC, Liquid	271.8
309.1 K, Large sample (1 g) DSC, Liquid	274.4
314.2 K, Large sample (1 g) DSC, Liquid	277
319.4 K, Large sample (1 g) DSC, Liquid	278.9
324.5 K, Large sample (1 g) DSC, Liquid	281.7
329.6 K, Large sample (1 g) DSC, Liquid	284.7
334.7 K, Large sample (1 g) DSC, Liquid	287.3
339.8 K, Large sample (1 g) DSC, Liquid	289.9
344.9 K, Large sample (1 g) DSC, Liquid	292.7
350 K, Large sample (1 g) DSC, Liquid	295.6
355.1 K, Large sample (1 g) DSC, Liquid	298.8
